Entries after “also recorded” stand apart in the source; their conditions may differ.
Experiments:
IGF-1R and IR = test: Biochemical potency against IGF-1R and IR; details: comparison of IGF-1R and IR
IGF-1R = target: T1, IGF-1R (Homo sapiens, UniProt P08069); test: IGF-1R phosphorylation (pIGF-1R) in tumor cells, RTK capture array; type: cell-based; details: OSI-906 3 uM, 24 hours
T1 construct: endogenous in cells; host or cells: A673, H322, HT-29 tumor cells
From the text: The media was removed, cells were washed two times with PBS, and cells were lysed as previously described.

Akt pathway = test: Downstream signaling (pAkt, pErk) in tumor cell lysates, Western blotting; type: cell-based, human; details: H322 NSCLC and HT-29 CRC cells; OSI-906 3 uM or MAB-391 2 ug/ml; 24 hours
Description: Cell extracts were prepared by detergent lysis (50 mM Tris-HCl, pH 8.0, 150 mM NaCl, 1% NP-40, 0.5% sodium deoxycholate, 0.1% SDS, containing protease inhibitor (P8340, Sigma, St. Louis, Mo.) and phosphatase inhibitor (P5726, Sigma, St. Louis, Mo.) cocktails. The soluble protein concentration was determined by micro-BSA assay (Pierce, Rockford Ill.). Protein immunodetection was performed by electrophoretic transfer of SDS-PAGE separated proteins to nitrocellulose, incubation with antibody, and chemiluminescent second step detection (PicoWest; Pierce, Rockford, Ill.). The antibodies included: phospho-Akt(473) and total Akt. Both antibodies were obtained from Cell Signaling Technology, Inc. (Danvers, Mass.). For analysis of an agent's effect on the phosphorylation of downstream signaling proteins, cell lines were grown to approximately 70% confluency, at which time the indicated agent was added at the indicated concentration, and cells were incubated at 37° C. for 24 hours. The media was removed, cells were washed two times with PBS, and cells were lysed as previously described.

T1 sequence (P08069 31-1367): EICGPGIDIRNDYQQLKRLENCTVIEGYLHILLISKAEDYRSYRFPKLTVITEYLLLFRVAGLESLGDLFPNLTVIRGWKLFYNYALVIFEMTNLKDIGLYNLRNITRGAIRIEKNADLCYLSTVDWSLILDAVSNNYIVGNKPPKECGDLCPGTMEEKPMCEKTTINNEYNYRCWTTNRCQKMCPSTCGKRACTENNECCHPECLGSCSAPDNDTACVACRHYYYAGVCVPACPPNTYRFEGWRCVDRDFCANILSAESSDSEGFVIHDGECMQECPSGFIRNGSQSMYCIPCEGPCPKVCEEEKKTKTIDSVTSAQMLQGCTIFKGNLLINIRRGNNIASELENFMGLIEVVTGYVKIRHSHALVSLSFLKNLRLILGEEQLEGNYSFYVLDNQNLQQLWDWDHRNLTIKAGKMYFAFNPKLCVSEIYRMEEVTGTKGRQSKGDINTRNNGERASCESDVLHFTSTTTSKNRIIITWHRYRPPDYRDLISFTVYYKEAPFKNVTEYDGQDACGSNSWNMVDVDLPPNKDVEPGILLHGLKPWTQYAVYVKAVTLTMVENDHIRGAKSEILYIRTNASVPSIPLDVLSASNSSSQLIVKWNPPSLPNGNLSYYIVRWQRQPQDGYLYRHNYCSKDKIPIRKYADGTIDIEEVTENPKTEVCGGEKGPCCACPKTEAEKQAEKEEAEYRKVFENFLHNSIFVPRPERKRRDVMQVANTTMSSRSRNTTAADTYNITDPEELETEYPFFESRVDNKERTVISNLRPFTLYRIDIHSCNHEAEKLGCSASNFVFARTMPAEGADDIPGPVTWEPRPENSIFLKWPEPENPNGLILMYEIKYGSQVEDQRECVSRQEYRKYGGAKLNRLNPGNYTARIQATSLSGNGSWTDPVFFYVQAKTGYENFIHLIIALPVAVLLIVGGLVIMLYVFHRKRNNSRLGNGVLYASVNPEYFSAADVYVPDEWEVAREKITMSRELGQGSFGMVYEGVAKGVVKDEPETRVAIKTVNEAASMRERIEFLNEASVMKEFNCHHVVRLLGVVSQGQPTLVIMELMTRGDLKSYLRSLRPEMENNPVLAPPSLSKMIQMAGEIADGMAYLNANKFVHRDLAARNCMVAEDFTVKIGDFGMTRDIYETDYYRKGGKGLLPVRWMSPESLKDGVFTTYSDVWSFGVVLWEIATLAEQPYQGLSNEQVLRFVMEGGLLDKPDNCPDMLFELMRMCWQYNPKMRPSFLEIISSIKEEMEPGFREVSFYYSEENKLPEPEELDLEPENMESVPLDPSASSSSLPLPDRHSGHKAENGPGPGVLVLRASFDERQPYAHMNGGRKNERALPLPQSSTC

Structure (SMILES): C[C@]1(O)C[C@@H](c2nc(-c3ccc4ccc(-c5ccccc5)nc4c3)c3c(N)nccn32)C1 [OSI-906, cis-3-[8-amino-1-(2-phenyl-quinolin-7-yl)-imidazo[1,5-a]pyrazin-3-yl]-1-methyl-cyclobutanol]
- biochemical potencies against IGF-1R and IR (IGF-1R and IR): similar
- inhibition of IGF-1R (pIGF-1R) (IGF-1R; A673 Ewing's Sarcoma cells): inhibits both IR and IGF-1R
- inhibition of pIGF-1R (IGF-1R; H322 and HT-29 cells (FIG. 2)): robust inhibition of both pIR and pIGF-1R
- inhibition of the Akt pathway (pAkt) (Akt pathway): greater blockade of the Akt pathway; also recorded: greater capacity to inhibit the Akt pathway

Reference: patent US20120189641A1, “COMBINATION ANTI-CANCER THERAPY” (OSI PHARMACEUTICALS, LLC, priority 2009, published 2012)
